Results reported in patent publication US20240109912A1, “TRICYCLIC PYRIMIDINES AS CYCLIN-DEPENDENT KINASE 7 (CDK7) INHIBITORS” (JANSSEN PHARMACEUTICA NV, priority 2020, published 2024).
Where “and” joins values, the source holds several entries; their conditions need not be identical. Equal entries are not always repeated. Where two headings read alike, the source gives them in different places.

What was measured:
[1] = biological target: CDK7/cyclinH/MAT1 trimeric complex (Homo sapiens (Human), UniProt P50613); test: In vitro CDK7 assay, potency of irreversible covalent inhibitors (kinact/KI)
[2] = tested on: RNA polymerase II Serine 5 phosphorylation in A549 cells overexpressing CDK7 mutant (C312S); test: Imaging-based cellular RNA PolII Ser5 phosphorylation assay in A549 cells overexpressing CDK7-mutant (C312S); format: cell-based, human; conditions: for IC50: Homo sapiens, A549, A549 cells overexpressing CDK7 mutant (C312S), read-out: CDK7_ A549 mutant hCDK7(pIC50) (converted); for CDK7_ A549 mutant hCDK7(pIC50): A549 cells overexpressing CDK7 mutant (C312S)
Procedure, shortened: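 A stably transduced A549 pool overexpressing CDK7 C312S, a mutant that blocks covalent binding at Cys312, while retaining endogenous wild-type CDK7 was used. Ser5 phosphorylation was measured by imaging, and IC50 values were derived.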

[3] = tested on: RNA polymerase II Serine 5 phosphorylation (CDK7) in A549 cells
[4] = CDK7 (20 nM enz.) (KI, μM), 20 nM enz.
[5] = read-out: CDK7 (20 nM enz.) (kinact, s^−1), 20 nM enz.
[6] = read-out: CDK7 (20 nM enz.) (kinact/ KI, M^−1*s^−1), 20 nM enz.
[7] = read-out: CDK7 (20 nM enz.) (kobs/[I], M^−1*s^−1), 20 nM enz.

Sequence of CDK7/cyclinH/MAT1 trimeric complex (P50613 whole entry): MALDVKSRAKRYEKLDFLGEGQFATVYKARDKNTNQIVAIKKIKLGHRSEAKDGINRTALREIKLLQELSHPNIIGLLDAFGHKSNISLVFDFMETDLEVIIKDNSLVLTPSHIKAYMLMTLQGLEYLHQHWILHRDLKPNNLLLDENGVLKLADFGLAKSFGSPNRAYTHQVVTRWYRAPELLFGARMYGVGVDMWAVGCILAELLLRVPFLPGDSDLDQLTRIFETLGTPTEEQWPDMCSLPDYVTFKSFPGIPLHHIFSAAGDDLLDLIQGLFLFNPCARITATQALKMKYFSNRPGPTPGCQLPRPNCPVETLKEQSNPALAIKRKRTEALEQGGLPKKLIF
Sequence of CDK7/cyclinH/MAT1 trimeric complex (P51946 whole entry partner): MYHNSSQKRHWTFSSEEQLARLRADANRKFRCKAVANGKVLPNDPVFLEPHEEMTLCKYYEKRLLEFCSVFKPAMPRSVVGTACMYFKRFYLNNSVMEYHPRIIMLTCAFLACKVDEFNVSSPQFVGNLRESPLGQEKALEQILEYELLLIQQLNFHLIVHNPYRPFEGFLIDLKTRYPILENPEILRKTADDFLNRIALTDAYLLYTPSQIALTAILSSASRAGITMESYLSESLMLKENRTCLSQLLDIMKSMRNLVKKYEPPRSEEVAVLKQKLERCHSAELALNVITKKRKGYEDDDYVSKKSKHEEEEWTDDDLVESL
Sequence of CDK7/cyclinH/MAT1 trimeric complex (P51948 whole entry partner): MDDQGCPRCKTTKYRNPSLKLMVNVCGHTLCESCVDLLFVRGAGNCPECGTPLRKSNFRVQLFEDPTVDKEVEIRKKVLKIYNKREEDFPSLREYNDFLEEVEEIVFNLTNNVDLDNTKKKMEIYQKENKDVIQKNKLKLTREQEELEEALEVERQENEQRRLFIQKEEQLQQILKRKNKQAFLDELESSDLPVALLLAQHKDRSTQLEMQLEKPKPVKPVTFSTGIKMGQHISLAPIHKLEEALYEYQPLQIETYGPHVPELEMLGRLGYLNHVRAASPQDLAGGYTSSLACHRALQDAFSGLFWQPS

Structure (SMILES) | melting point [°C] | Ki [1, 4] | kinact [1, 5] [s⁻¹] | kinact/KI [1, 6] [M⁻¹ s⁻¹] | IC50 [2] [nM] | IC50 [3] | other results
C=CC(=O)N1CCC(N2CC(c3cc4c(c(C(F)(F)F)c3)OCc3c(ncnc3-c3cnn(C)c3)N4)C2)CC1 [compound 44] | 178 | 0.67 µM | 4.31e-05 | 64.4 | > 10000 | 1170 nM | 
CC#CC(=O)N1CCC(N2CC(c3cc(C)c4c(c3)Nc3ncnc(N5CCS(=O)(=O)CC5)c3C(C)O4)C2)CC1 (racemic) [compound 123] | 218 |  |  |  | 8320 | 50.1 nM | 
C=CC(=O)N1CCC(N2CC(c3cc(C)c4c(c3)Nc3ncnc(N5CCS(=O)(=O)CC5)c3[C@@H](C)O4)C2)CC1 (single isomer, unassigned) [compound 102] | 227 |  |  |  | > 10000 | 186 nM and 174 nM and 151 nM and 148 nM | 
CC#CC(=O)N1CCC(N2CC(c3cc(C)c4c(c3)Nc3ncnc(N5CCS(=O)(=O)CC5)c3[C@@H](C)O4)C2)CC1 (single isomer, unassigned) [compound 124] | 292 |  |  |  | > 10000 | 251 nM and 138 nM | 
C=CC(=O)N1CC[C@@H](N2CC(c3cc(C)c4c(c3)Nc3ncnc(N5CCS(=O)(=O)CC5)c3CO4)C2)C1 [compound 92] | 241 |  |  |  | > 10000 | 427 nM | 
C=CC(=O)N1CCC(N2CC(c3cc(C)c4c(c3)Nc3ncnc(N5CCS(=O)(=O)CC5)c3[C@H](C)O4)C2)CC1 (single isomer, unassigned) [compound 100] | 226 |  |  |  | ~6610 |  | CDK7_ A549 mutant hCDK7(pIC50) [2]: 5.25 and 5.24 and 5.16
C=CC(=O)N1CCN(C2CN(c3ccc4c(c3)Nc3ncnc(N5CCOCC5)c3CO4)C2)CC1 [compound 4] | 151 |  |  |  | > 10000 | > 10000 nM | 
C=CC(=O)N1CC(N2CC=C(c3ccc4c(c3)Nc3ncnc(N5CCOCC5)c3CO4)CC2)C1 [compound 33] | 193 |  |  |  | > 10000 | 2340 nM | 
C=CC(=O)N1CC[C@H](N2CC(c3cc(C)c4c(c3)Nc3ncnc(N5CCS(=O)(=O)CC5)c3CO4)C2)C1 [compound 90] | 232 |  |  |  | ~10000 | 251 nM | 
CC#CC(=O)N1CCC(N2CC(c3cc(C)c4c(c3)Nc3ncnc(N5CCS(=O)(=O)CC5)c3[C@H](C)O4)C2)CC1 (single isomer, unassigned) [compound 125] | 203 |  |  |  | 6760 | ~17.8 nM and ~26.9 nM | CDK7_ A549 mutant hCDK7(pIC50) [2]: 5.26
CC#CC(=O)N1CCC(C)(N2CC(c3cc(C)c4c(c3)Nc3ncnc(N5CCS(=O)(=O)CC5)c3[C@@H](C)O4)C2)C1 (mixture of isomers) [compound 147] | 244 |  |  |  | > 10000 | 309 nM | 
C=CC(=O)N1CC(N2CCC(c3cc4c(cn3)O[C@@H](C)c3c(ncnc3N3CCOCC3)N4)CC2)C1 (single isomer, unassigned) [compound 62] | 253 | 0.504 µM and 2.05 µM | 5.74e-05 |  | > 3980 |  | CDK7 (20 nM enz.) (kinact, s^−1) ([1]; 20 nM enz.): 4.79e-05 s⁻¹; CDK7_ A549 mutant hCDK7(pIC50) [2]: <5.4
CC#CC(=O)N1CC(N2CCC(c3cc(C)c4c(c3)Nc3ncnc(N5CCOC6(COC6)C5)c3CO4)CC2)C1 [compound 195] |  | 0.108 µM | 5.21e-05 | 485 | > 10000 | 102 nM | 
C=CC(=O)N1CCC(N2CC(c3cc(C)c4c(c3)Nc3ncnc(N5CCOCC5)c3CO4)C2)C(F)C1 (stereo not shown) [compound 29] |  | 0.78 µM |  |  |  | 1120 nM | CDK7 (20 nM enz.) (kinact, s^−1) ([1]; 20 nM enz.): 7.3e-05 s⁻¹; CDK7 (20 nM enz.) (kinact/ KI, M^−1*s^−1) ([1]; 20 nM enz.): 93.6387 M⁻¹ s⁻¹; CDK7_ A549 mutant hCDK7(pIC50) [2]: <5
C=CC(=O)N1CC(N2CC(c3cc(C)c4c(c3)Nc3ncnc(-c5cnn(C)c5)c3[C@@H](C)O4)C2)C1 (single isomer, unassigned) [compound 109] |  | 0.13 µM | 4.5e-05 | 345 | > 10000 | 363 nM | 
C=CC(=O)N1CC(N2CCC(c3cc4c(cn3)O[C@H](C)c3c(ncnc3N3CCOCC3)N4)CC2)C1 (single isomer, unassigned) [compound 83] |  | 0.059 µM |  |  |  | 138 nM | CDK7 (20 nM enz.) (kinact, s^−1) ([1]; 20 nM enz.): 2.22e-05 s⁻¹; CDK7 (20 nM enz.) (kinact/ KI, M^−1*s^−1) ([1]; 20 nM enz.): 376.933 M⁻¹ s⁻¹; CDK7_ A549 mutant hCDK7(pIC50) [2]: <5.4
CC#CC(=O)N1CC(N2CCN(c3cc(C)c4c(c3)Nc3ncnc(N5CCS(=O)(=O)CC5)c3[C@@H](C)O4)CC2)C1 [compound 155] |  | 0.00172 µM | 2.06e-05 | 12200 | > 10000 | 214 nM | 
C=CC(=O)N1CC[C@H](N2CCC(c3cc(F)c4c(c3)Nc3ncnc(N5CCOCC5)c3CO4)CC2)C1 (single isomer, unassigned) [compound 50] |  | 0.302 µM | 7.72e-05 | 256 | > 10000 | 200 nM | 
C=CC(=O)N1CC(N2CCC(c3ccc4c(c3)Nc3ncnc(-c5ccc(=O)n(C)c5)c3CO4)CC2)C1 [compound 8] |  |  |  |  | > 10000 | 5500 nM | Ki ([1]; CDK7 (KI(μM)), Table B): 0.251 µM; kinact ([1]; read-out: CDK7 (kinact, s^−1), Table B): 0.000188 s⁻¹; kinact/KI ([1]; read-out: CDK7 (kinact/KI, M^−1*s^−1), Table B): 749 M⁻¹ s⁻¹
C#Cc1cc(C2CCN(C3CN(C(=O)C=C)C3)CC2)cc2c1O[C@H](C)c1c(ncnc1N1CCS(=O)(=O)CC1)N2 (single isomer, unassigned) [compound 189] |  | 0.0806 µM | 8.1e-05 | 879 | > 10000 | 195 nM and 200 nM | 
C=CC(=O)N1CC(N2CCC(c3ccc4c(c3)Nc3ncnc(N5CCOCC5)c3CO4)CC2)C1 [compound 1] | 184 | 0.389 µM | 9.1e-05 | 234 | > 10000 |  | Ki ([1]; CDK7 (KI(μM)), Table B): 0.598 µM and 0.167 µM and 0.608 µM and 0.285 µM
C=CC(=O)N1CC(N2CCC(c3cc(C)c4c(c3)Nc3ncnc(N5CCS(=O)(=O)CC5)c3CO4)CC2)C1 [compound 101] | 169 | 0.077 µM and 0.0323 µM | 5.87e-05 |  | > 10000 |  | CDK7 (20 nM enz.) (kinact, s^−1) ([1]; 20 nM enz.): 8.74e-05 s⁻¹; CDK7 (20 nM enz.) (kobs/[I], M^−1*s^−1) ([1]; 20 nM enz.): 1455 M⁻¹ s⁻¹; kinact/KI [1, 7]: 1460 M⁻¹ s⁻¹
C=CC(=O)N1CC(N2CC(c3cc(C)c4c(c3)Nc3ncnc(N5CCOCC5)c3C(C)O4)C2)C1 (stereo not shown) [compound 103] |  | 0.32 µM | 5.08e-05 | 159 | > 10000 | ~1020 nM | 
C=CC(=O)N1CCC(N2CC(c3cc(F)c4c(c3)Nc3ncnc(N5CCOCC5)c3[C@H](C)O4)C2)CC1 [compound 26] |  | 0.336 µM | 4.84e-05 | 203 | > 10000 | 288 nM | 
C#Cc1cc(C2CCN(C3CN(C(=O)C=C)C3)CC2)cc2c1O[C@@H](C)c1c(ncnc1N1CCS(=O)(=O)CC1)N2 [compound 190] |  |  |  |  | > 10000 | ~50.1 nM and ~40.7 nM | kinact/KI [1, 7]: 839 M⁻¹ s⁻¹
C=CC(=O)N1CCC(N2CC[C@H](c3cc(C)c4c(c3)Nc3ncnc(N5CCOCC5)c3CO4)C2)CC1 [compound 24] |  | 0.533 µM | 4.78e-05 | 89.6 | > 10000 | 646 nM | 
C=CC(=O)N1CCC(N2CC(c3cc(Cl)c4c(c3)Nc3ncnc(C5CCOCC5)c3CO4)C2)CC1 [compound 19] |  | 0.542 µM | 8.14e-05 | 150 | > 10000 | 871 nM | 
C=CC(=O)N1CC(N2CC(c3cc(C)c4c(c3)Nc3ncnc(N5CCS(=O)(=O)CC5)c3CO4)C2)C1 [compound 111] |  | 0.112 µM | 0.000116 | 1030 | > 10000 | 288 nM | 
